Data as given in patent US20150374709A1, “TETRA-SUBSTITUTED NDGA DERIVATIVES VIA ETHER BONDS AND CARBAMATE BONDS AND THEIR SYNTHESIS AND PHARMACEUTICAL USE” (ERIMOS PHARMACEUTICALS LLC, priority 2006, published 2015).

Columns and labels:
[1] = tested on: Colon Cancer cell lines; test: NCI DTP human tumor cell line screen, colon cancer panel; assay type: cell-based; conditions: Colon Cancer (7 cell lines)
Excerpt: (§1) The United States National Cancer Institute (NCI) provides a developmental therapeutics program (DTP) (http://dtp.nci.nih.gov/branches/btb/ivelsp.html) to screen submitted substances in support of cancer drug discovery. The In Vitro Cell Line Screening Project (IVCLSP) is a dedicated service providing direct support to the DTP anticancer drug discovery program and is designed to screen up to 3,000 compounds per year for potential anticancer activity. The operation of this screen utilizes 60 different human tumor cell lines, representing leukemia, melanoma and cancers of the lung, colon, brain, ovary, breast, prostate, and kidney. The aim is to prioritize for farther evaluation, synthetic compounds or natural product samples showing selective growth inhibition or cell killing of particular tumor cell lines. This screen is unique in that the complexity of a 60 cell line dose response produced by a given compound results in a biological response pattern which can be utilized in pattern recognition algorithms (COMPARE program. See: http://dtp.nci.nih.gov/docs/compare/compare.html). Using these algorithms, it is possible to assign a putative mechanism of action to a test compound, or to determine that the response pattern is unique and not similar to that of any of the standard prototype compounds included in the NCI database. […]

[2] = tested on: Breast Cancer cell lines; test: NCI DTP human tumor cell line screen, breast cancer panel; assay type: cell-based; conditions: Breast Cancer (6 cell lines)
Excerpt: as §1

[3] = tested on: Renal Cancer cell lines; test: NCI DTP human tumor cell line screen, renal cancer panel; assay type: cell-based; conditions: Renal Cancer (6 cell lines)
Excerpt: as §1

[4] = tested on: Melanoma cell lines; test: NCI DTP human tumor cell line screen, melanoma panel; assay type: cell-based; conditions: Melanoma (8 cell lines)
Excerpt: as §1

[5] = Non-specific binding to 24-well assay plate without cells; assay type: in vitro ADME; conditions: single well of a 24-well assay plate without cells, nominal conc. 1.0 μM, single well of 24-well plate without cells
Description: To determine the extent of non-specific binding of the sample to the assay plate, the sample solution was incubated under the conditions described above in a single well of a 24-well assay plate. After 90 minutes, the sample was removed from each well for analysis. After all samples were collected, lucifer yellow solution was added to each monolayer at a final concentration of 100 μM. The inserts were placed in a new receiver plate containing transport buffer. After a 30 min. incubation on an orbital shaker (50 rpm) at 37° C., with ambient humidity and CO2, samples were removed from the receiver chamber to measure percent lucifer yellow flux.
The recovery of Compound A from the apical and basolateral chambers (mass balance) as well as from a single well of a 24-well culture plate without cells (non-specific binding) at the end of the incubation is reported in Table 9.

Structure (SMILES): C[C@H](Cc1ccc(OCCCN2CCCCC2)c(OCCCN2CCCCC2)c1)[C@@H](C)Cc1ccc(OCCCN2CCCCC2)c(OCCCN2CCCCC2)c1 [Compound A, 1,4-bis{3,4-bis[3-(piperidin-1-yl)propoxy]phenyl}-2,3-dimethyl-(2R,3S)-butane]
- Mean Growth Percent at 10 μM [1]: −94.08%
- Mean Growth Percent at 10 μM [2]: −67.95%
- Mean Growth Percent at 10 μM [3]: −95.54%
- Mean Growth Percent at 10 μM [4]: −92.38%
- recovery at 90 min, 1 μM [5]: 13%
